# Results: patent publication US7435721B2, “Transport peptides such as C-terminal Erns peptide and analogues thereof” (Pepscan Systems B.V., priority 2000, dated 2008)
# *: point of attachment. Biotin = O=C1N[C@H]2[C@H](CS[C@H]2CCCCC(=O)*)N1
# Tested on: live cells in suspension or subconfluent monolayers
# Format: cell-based
Substance,"Concentration (translocation activity), optimization of E^rns peptide [µM]",Concentration (translocation activity of transport peptides) [µM],"Concentration (translocation activity), mapping of restrictocin L3 loop [µM]"
Biotin-RVRSWLGRQLRIAGKRLEGRSK-NH2 [MDL-9],1.0,–,–
Biotin-KRIPNKKPGKKTTTKPTKKPTIKTTKKDLK-NH2 [MDN-13],–,1.0,–
Biotin-KLIKGRTPIKFGKARCRRPPKHSGK-NH2,–,–,0.3
Biotin-KRIPNKKPGKK-NH2 [MDS-34],–,0.03,–
Biotin-QTRRRERRAEKQAQW-NH2 [Bacteriophage lambda N peptide],–,1.0,–
